Experimental data taken from ChEMBL document CHEMBL5257088 (J Nat Prod, 2023).
The source made the active and inactive calls. The calls are words filed in the database; no cut-off is given here.

Tests used:
[1] = target: T1, Muscarinic acetylcholine receptor M1 (Homo sapiens, UniProt P11229)
T1 sequence (P11229 whole entry): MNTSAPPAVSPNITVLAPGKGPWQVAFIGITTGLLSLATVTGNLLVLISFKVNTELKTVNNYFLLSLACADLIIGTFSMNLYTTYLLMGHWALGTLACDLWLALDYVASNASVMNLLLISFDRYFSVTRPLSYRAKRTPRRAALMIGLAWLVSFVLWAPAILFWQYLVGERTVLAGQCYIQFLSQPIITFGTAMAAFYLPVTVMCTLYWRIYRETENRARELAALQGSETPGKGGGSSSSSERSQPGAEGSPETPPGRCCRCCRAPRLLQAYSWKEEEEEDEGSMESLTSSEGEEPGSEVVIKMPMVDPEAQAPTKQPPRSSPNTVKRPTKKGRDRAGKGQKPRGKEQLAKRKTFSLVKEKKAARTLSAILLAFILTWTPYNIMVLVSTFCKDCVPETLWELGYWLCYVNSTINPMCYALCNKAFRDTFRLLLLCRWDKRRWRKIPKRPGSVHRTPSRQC
Description: Partial agonist activity at N-terminal FLAG tagged/C-terminal NanoLuc tagged human muscarinic M1 receptor expressed in HEK293T cells using furimazine as substrate assessed as receptor activation preincubated with substrate for 1 min followed by compound addition and measured for 6 mins 27 sec by NanoBRET assay

[2] = target: T2, Muscarinic acetylcholine receptor M2 (Homo sapiens, UniProt P08172)
T2 sequence (P08172 whole entry): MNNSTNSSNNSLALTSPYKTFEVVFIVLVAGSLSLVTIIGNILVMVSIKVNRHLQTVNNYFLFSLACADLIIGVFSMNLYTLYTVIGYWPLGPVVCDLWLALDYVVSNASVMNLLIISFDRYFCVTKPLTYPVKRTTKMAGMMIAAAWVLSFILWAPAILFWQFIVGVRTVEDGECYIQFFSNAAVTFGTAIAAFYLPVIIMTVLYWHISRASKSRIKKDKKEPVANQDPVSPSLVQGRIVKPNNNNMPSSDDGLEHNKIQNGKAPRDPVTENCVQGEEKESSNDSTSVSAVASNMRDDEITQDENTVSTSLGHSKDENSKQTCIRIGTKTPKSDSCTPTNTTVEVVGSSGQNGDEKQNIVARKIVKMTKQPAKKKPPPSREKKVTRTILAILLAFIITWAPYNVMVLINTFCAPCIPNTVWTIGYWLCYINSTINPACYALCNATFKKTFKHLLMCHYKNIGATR
Description: Partial agonist activity at C-terminal NanoLuc tagged human muscarinic M2 receptor expressed in HEK293T cells using furimazine as substrate assessed as receptor activation preincubated with substrate for 1 min followed by compound addition and measured for 6 mins 27 sec by NanoBRET assay

[3] = target: T3, Muscarinic acetylcholine receptor M3 (Homo sapiens, UniProt P20309)
Target sequence in this assay (P20309 whole entry): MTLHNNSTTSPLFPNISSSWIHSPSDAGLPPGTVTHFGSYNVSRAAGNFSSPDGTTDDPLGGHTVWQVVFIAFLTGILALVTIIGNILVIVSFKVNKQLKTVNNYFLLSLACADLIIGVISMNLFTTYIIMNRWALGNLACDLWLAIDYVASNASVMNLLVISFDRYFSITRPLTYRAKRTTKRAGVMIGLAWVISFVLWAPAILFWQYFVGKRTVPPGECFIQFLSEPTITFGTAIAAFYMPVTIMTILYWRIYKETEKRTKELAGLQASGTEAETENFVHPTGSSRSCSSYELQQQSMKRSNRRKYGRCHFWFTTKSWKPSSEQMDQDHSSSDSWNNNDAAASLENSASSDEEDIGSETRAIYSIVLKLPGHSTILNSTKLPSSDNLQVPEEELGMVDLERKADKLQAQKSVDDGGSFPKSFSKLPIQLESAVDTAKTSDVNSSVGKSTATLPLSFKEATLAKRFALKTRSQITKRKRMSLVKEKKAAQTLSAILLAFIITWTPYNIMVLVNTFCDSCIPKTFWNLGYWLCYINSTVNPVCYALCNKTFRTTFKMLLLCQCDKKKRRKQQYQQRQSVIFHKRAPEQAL
Description: Partial agonist activity at C-terminal NanoLuc tagged human muscarinic M3 receptor expressed in HEK293T cells using furimazine as substrate assessed as receptor activation preincubated with substrate for 1 min followed by compound addition and measured for 6 mins 27 sec by NanoBRET assay

[4] = target: T3, Muscarinic acetylcholine receptor M3; experiment: (§1) Partial agonist activity at C-terminal NanoLuc tagged human muscarinic M3 receptor expressed in HEK293T cells using furimazine as substrate assessed as receptor activation at 100 uM preincubated with substrate for 1 min followed by compound addition and measured for 6 mins 27 sec by NanoBRET assay; type: cell-based; conditions: time 387.0 sec
Target sequence in this assay (P20309 whole entry, looked up): as the sequence (P20309 whole entry) above

[5] = target: T4, Muscarinic acetylcholine receptor M5 (Homo sapiens) (UniProt P08912); experiment: as §1, with “N-terminal FLAG tagged/C-terminal” for “C-terminal”, “M5” for “M3”; type: cell-based; conditions: time 387.0 sec
T4 sequence (whole entry): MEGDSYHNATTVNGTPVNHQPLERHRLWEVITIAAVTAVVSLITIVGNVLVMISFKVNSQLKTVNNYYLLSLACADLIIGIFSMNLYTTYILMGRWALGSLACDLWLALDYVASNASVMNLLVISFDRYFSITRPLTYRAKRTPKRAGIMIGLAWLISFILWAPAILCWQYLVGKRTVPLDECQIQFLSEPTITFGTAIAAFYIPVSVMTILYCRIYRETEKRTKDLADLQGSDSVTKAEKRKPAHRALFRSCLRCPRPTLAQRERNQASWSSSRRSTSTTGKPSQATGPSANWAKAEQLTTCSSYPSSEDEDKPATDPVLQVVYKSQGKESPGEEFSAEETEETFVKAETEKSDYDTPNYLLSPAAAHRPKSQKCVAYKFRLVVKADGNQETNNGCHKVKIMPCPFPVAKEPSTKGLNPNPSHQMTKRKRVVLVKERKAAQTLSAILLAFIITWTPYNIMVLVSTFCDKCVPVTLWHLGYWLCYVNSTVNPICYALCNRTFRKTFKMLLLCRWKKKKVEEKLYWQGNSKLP

[6] = target: T5, Muscarinic acetylcholine receptor M4 (Homo sapiens, UniProt P08173)
T5 sequence (P08173 whole entry): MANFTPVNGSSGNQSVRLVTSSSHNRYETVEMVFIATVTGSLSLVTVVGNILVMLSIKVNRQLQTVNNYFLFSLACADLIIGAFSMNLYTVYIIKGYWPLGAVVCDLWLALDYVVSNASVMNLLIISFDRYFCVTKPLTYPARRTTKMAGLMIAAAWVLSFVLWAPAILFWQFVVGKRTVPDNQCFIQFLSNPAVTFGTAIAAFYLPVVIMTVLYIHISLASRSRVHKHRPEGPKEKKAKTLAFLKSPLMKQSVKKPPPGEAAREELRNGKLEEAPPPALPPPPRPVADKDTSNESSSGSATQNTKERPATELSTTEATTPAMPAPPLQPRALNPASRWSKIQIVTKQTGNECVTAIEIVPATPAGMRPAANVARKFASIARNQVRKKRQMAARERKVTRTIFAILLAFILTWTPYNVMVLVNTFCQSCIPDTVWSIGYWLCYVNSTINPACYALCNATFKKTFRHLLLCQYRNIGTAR
Description: Partial agonist activity at N-terminal FLAG tagged/C-terminal NanoLuc tagged human muscarinic M4 receptor expressed in HEK293T cells using furimazine as substrate assessed as receptor activation preincubated with substrate for 1 min followed by compound addition and measured for 6 mins 27 sec by NanoBRET assay

[7] = target: T6, Muscarinic acetylcholine receptor M1 (Homo sapiens) (UniProt P11229); experiment: as §1, with “N-terminal FLAG tagged/C-terminal” for “C-terminal”, “M1” for “M3”; type: cell-based; conditions: time 387.0 sec
T6 sequence (whole entry): T1 sequence (P11229 whole entry)

[8] = target: T7, Muscarinic acetylcholine receptor M4 (Homo sapiens) (UniProt P08173); experiment: as §1, with “N-terminal FLAG tagged/C-terminal” for “C-terminal”, “M4” for “M3”; type: cell-based; conditions: time 387.0 sec
T7 sequence (whole entry): T5 sequence (P08173 whole entry)

[9] = target: T8, Muscarinic acetylcholine receptor M5 (Homo sapiens, UniProt P08912)
T8 sequence (P08912 whole entry): T4 sequence (whole entry)
Description: Partial agonist activity at N-terminal FLAG tagged/C-terminal NanoLuc tagged human muscarinic M5 receptor expressed in HEK293T cells using furimazine as substrate assessed as receptor activation preincubated with substrate for 1 min followed by compound addition and measured for 6 mins 27 sec by NanoBRET assay

Row | Structure (SMILES) | EC50 [1] | EC50 [2] | EC50 [3] | Activity [4] | Activity [5] | EC50 [6] | Activity [7] | Activity [8] | EC50 [9]
1 | CC[C@@H]1C(=O)OC[C@@H]1Cc1c[n+](CCCCCC[N+](C)(C)CC(C)(C)CN2C(=O)c3cccc4cccc(c34)C2=O)cn1C | 34.7 µM | 1.07 µM | 16.2 µM | – | – | – | – | – | –
2 | CC(C)(CN1C(=O)c2cccc3cccc(c23)C1=O)C[N+](C)(C)CCCCCC[n+]1c[nH]c(CC2COC(=O)C2)c1 (configuration not stated) | 0.251 µM | 0.251 µM | – | inactive | inactive | 2.63 µM | – | – | –
3 | CC[C@H]1C(=O)OC[C@@H]1Cc1c[n+](CCCCCCCC[N+](C)(C)CC(C)(C)CN2C(=O)c3cccc4cccc(c34)C2=O)cn1C | – | – | 31.6 µM | – | inactive | – | inactive | inactive | –
4 | O=C1C[C@@H](Cc2cnc[nH]2)CO1 | 6.17 µM | 1.38 µM | 20.9 µM | – | – | 7.41 µM | – | – | 14.8 µM
5 | Cn1cncc1C[C@H]1COC(=O)C1 [PILOSININE] | – | – | – | inactive | – | – | inactive | inactive | 26.3 µM

Further lines, with some results ahead:

Row | EC50 [1] | EC50 [2] | EC50 [3] | Activity [4] | Activity [5] | EC50 [6] | Activity [7] | Structure (SMILES) | Activity [8] | EC50 [9]
6 | 1.74 µM | 0.537 µM | 2.82 µM | – | – | – | – | CC[C@H]1C(=O)OC[C@@H]1Cc1c[n+](CCCCCC[N+](C)(C)CC(C)(C)CN2C(=O)c3cccc4cccc(c34)C2=O)cn1C | – | –
7 | – | – | – | inactive | inactive | 0.0955 µM | inactive | CC[C@@H]1C(=O)OC[C@@H]1Cc1c[n+](CCCCCCCC[N+](C)(C)CC(C)(C)CN2C(=O)c3cccc4cccc(c34)C2=O)cn1C | – | –
8 | – | – | – | inactive | inactive | 36.3 µM | inactive | Cn1c[n+](CCCCCC[N+](C)(C)CC(C)(C)CN2C(=O)c3cccc4cccc(c34)C2=O)cc1CC1COC(=O)C1 (configuration not stated) | – | –
